The values that follow come from PMC3225806 (Chemistry & biology, 2011).

The structures appear in SMILES notation.

This experiment has as its system full-length JFH-1 replicon. Briefly: replicon model, intracellular HCV RNA by RT-qPCR. It counts as cell-based, hepatitis C virus in Huh-7 cells. To be noted: peptides 20 µM, controls 1 µM, 48 hours.

`COc1ccc2c(O[C@@H]3C[C@H]4C(=O)N[C@]5(C(=O)O)C[C@H]5/C=C\CCCCC[C@H](NC(=O)OC5CCCC5)C(=O)N4C3)cc(-c3csc(NC(C)C)n3)nc2c1` [BILN2061]: the “intracellular HCV RNA levels in replicon cells” value was “efficiently reduced HCV RNA levels”. The entry for `C[C@@]1(O)[C@H](O)[C@@H](CO)O[C@H]1n1ccc(N)nc1=O` [Peptide 2-CMC, 2’-C-methylcytidine] is “efficiently reduced HCV RNA levels”.
